Source: article PMC6120236 (FEBS Open Bio, 2018)
Where two headings read alike, the source gives them in different places.

Key:
[1] = target: T1, WT ITK (His6-tagged human wild-type ITK kinase domain) (Homo sapiens, UniProt Q08881); test: ADP-Glo kinase assay; format: biochemical
T1 construct: Ni-NTA, Q Sepharose, Superdex 200
T1 sequence (Q08881 357-620 limits assumed): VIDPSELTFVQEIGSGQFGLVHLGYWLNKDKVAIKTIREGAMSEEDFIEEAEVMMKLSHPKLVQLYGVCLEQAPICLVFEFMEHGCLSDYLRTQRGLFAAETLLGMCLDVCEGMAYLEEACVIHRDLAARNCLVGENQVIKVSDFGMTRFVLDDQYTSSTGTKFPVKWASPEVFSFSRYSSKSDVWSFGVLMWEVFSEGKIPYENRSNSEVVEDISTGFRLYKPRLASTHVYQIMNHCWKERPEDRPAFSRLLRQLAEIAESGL
Excerpt: ADP-Glo kinase assay on WT ITK (His6-tagged human wild-type ITK kinase domain)

[2] = target: T1, WT ITK (His6-tagged human wild-type ITK kinase domain); test: SPR (Biacore, NTA capture coupling); format: binding
HCK = HCK (Homo sapiens, UniProt P08631); test: DiscoveRx KINOMEscan; details: read-out: Percentage of control binding / J-95
Excerpt: DiscoveRx KINOMEscan on HCK

[3] = target: T1, WT ITK (His6-tagged human wild-type ITK kinase domain); test: biochemical kinase inhibition assay
LCK = LCK (Homo sapiens, UniProt P06239); test: DiscoveRx KINOMEscan; details: read-out: Percentage of control binding / J-95
Excerpt: DiscoveRx KINOMEscan on LCK

CLK1 = CLK1 (Homo sapiens, UniProt P49759); test: DiscoveRx KINOMEscan; details: read-out: Percentage of control binding / J-31
Excerpt: DiscoveRx KINOMEscan on CLK1

LCK, sequence (P06239 2-509): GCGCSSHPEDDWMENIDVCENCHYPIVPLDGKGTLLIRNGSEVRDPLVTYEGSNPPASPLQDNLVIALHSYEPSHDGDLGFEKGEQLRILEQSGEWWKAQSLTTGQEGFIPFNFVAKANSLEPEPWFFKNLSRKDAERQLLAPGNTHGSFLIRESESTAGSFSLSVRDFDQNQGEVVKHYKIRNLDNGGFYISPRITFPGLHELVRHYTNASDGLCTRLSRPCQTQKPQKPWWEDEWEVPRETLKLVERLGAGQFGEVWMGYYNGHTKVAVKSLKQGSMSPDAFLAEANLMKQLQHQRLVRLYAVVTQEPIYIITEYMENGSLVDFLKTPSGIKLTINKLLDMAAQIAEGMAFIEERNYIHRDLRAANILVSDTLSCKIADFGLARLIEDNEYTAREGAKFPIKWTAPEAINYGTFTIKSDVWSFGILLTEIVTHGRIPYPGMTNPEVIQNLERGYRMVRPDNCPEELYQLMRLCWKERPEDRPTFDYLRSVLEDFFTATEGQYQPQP
HCK, sequence (P08631 2-526): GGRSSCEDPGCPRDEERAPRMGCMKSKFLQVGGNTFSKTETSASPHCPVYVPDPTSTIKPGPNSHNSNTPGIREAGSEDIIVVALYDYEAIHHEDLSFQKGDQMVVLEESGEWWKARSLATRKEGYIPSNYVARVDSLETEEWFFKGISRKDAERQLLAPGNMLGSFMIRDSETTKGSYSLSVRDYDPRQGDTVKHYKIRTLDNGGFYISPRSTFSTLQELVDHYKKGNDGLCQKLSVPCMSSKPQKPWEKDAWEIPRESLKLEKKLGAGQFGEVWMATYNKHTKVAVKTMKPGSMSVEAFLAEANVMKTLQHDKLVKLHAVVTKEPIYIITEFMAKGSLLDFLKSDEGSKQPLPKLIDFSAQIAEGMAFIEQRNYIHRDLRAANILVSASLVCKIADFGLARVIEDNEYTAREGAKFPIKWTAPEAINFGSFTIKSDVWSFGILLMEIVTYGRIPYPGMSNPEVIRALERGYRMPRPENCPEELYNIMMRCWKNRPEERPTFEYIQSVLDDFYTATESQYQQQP
CLK1, sequence (P49759 whole entry): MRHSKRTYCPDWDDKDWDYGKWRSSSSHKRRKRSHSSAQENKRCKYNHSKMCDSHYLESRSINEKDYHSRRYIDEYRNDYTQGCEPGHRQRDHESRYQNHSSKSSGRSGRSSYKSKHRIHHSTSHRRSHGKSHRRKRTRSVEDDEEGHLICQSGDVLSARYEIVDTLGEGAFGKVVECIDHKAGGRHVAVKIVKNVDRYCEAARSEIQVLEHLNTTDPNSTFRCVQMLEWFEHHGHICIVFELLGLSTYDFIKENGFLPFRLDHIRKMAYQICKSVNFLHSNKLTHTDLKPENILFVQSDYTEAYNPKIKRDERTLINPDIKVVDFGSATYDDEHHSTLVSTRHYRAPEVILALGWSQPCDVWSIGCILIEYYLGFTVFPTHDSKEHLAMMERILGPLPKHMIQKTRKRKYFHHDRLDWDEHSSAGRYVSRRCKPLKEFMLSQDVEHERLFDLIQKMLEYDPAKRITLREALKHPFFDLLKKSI

SMILES | IC50 [1] | Kd ([2]; read-out: K D) | further results
COc1cc(C)c(Sc2cnc(NC(C)=O)s2)cc1C(=O)N1CCN(C(C)=O)CC1 [B, Derivative of A] | 260 nM | 75 nM | 
COc1cc(C)c(Sc2cnc(NC(=O)c3ccc(CNC(C)C(C)(C)C)cc3)s2)cc1C(=O)N1CCN(C(C)=O)CC1 (centres unmarked) [A, BMS-509744] | 2.5 nM | 1.3 nM | 
CCOC(=O)/C=C1\CC(=O)Nc2cc(C)c(C)cc2N1 [J-95] |  |  | remaining binding at 20 µM (HCK): 33%; IC50 [3]: 3300 nM; Kd [2]: 1000 nM; remaining binding at 20 µM (LCK): 29%
CC(C)Oc1ccc2cccc(-n3cc(NC(N)=O)c(C(N)=O)n3)c2c1 [C, Pfizer compound 9] | 24 nM | 25 nM | 
COc1ccc(OCCn2c(NC(=O)c3ccco3)nc3ccccc32)cc1 [J-31] |  |  | IC50 [3]: 5500 nM; remaining binding at 50 µM (CLK1): 21%; Kd [2]: 3400 nM
CC(=O)N1CCCC(n2nc(-c3cccc(C(=O)Nc4ccc(C(C)C)cc4)c3)c3c(N)ncnc32)C1 (centres unmarked) [E, Derivative of D] | 460 nM | 1100 nM | 
CCc1ccc2nc(Nc3cc(Cc4ccccc4)nc(N[C@H]4CC[C@H](O)CC4)n3)sc2c1 [G, GSK compound 13] | 3.5 nM | 3.6 nM | 
